# Results published in patent US20090238766A1, “BIOLUMINESCENT CONSTRUCT” (ABBOTT LABORATORIES, priority 2008, published 2009).
# System: caspase-3/7
# Experiment: In vivo bioluminescent imaging of VivoGlo Caspase-3/7 substrate and caspase-3/7 inactive substrate(s)
# Settings: mice bearing tumors stably expressing luciferase, treated with apoptosis-inducing cytotoxic therapy (e.g. docetaxel); substrate 62.5 mg/mL intraperitoneally; detected 5-30 minutes post injection
# Method: In luciferase-expressing cells undergoing apoptosis, caspase-3/7 will cleave the DEVD peptide from the VivoGlo™ Caspase-3/7 substrate, allowing it to be a substrate for luciferase photon production. […] The photon emission will be detected with a photodetector device at timepoints from 5-30 minutes post injection and quantified.
substance,measurement,value
Z-DEVD-aminoluciferin [VivoGlo Caspase-3/7],bioluminescent signal (photon emission),significant bioluminescent signal
